Patent US20260345573A1, “METHOD OF TREATMENT WITH ILOPERIDONE” (Vanda Pharmaceuticals Inc., priority 2023, published 2026)
“Also recorded” adds a separate entry of the source.

Columns and labels:
Type in all cases: in vivo, human
[1] = Study 3201: serum urate in patients with acute manic episodes associated with bipolar I disorder, by SLC2A9 rs7442295 genotype and sex; details: for LS Mean Change (SE) in serum urate from baseline: 24 mg/day oral (12 mg bid)
Method: (§1) A multi-center, randomized, double-blind, placebo-controlled study is performed to evaluate the safety and efficacy of iloperidone for four (4) weeks in the treatment of patients with acute manic episodes associated with bipolar I disorder (“Study 3201”). Patients in the study are randomized to orally receive either iloperidone at a dose of 24 mg/day given in a divided dose as 12 mg twice daily (bid), or matched placebo.
These increases are illustrated in FIG. 1 using solid data points.
To test the hypothesis of altered urate serum levels in association with variants in the SLC2A9 gene, whole genome sequencing is conducted from blood samples, genotype status is obtained through standard data analysis, and linear models for SLC2A9 variants are performed on urate concentration in samples collected at baseline (corrected for PCs, age, sex) and samples collected at the end of the study (EOS).
As shown in FIGS. 3-4, the rs7442295 variant of interest has a statistically significant effect on iloperidone-induced change in serum urate levels from baseline to Day 28 in patients with bipolar disorder. FIG. 3 illustrates individual patient changes in serum urate (in μmol/L) from baseline to Day 28, grouped according to treatment group (iloperiodone or placebo) and carrier status for variant rs7442295, while FIG. 4 illustrates mean serum levels for at patient evaluations conducted at baseline and Day 28, separated according to treatment group (iloperidone or placebo) and patient carrier status for rs7442295. The significant interaction affecting change is particularly observed between genotype*sex*treatment (full model: Multiple R-squared: 0.09251, Adjusted R-squared: 0.07078, F-statistic: 4.256 on 8 and 334 DF, p=0.00006942).
This observation is statistically significant when comparing genotypes at BOS as well as when comparing GG with AG and AA genotypes between treatment and placebo group in both males and females combined. Table 2 (below) provides mean change from baseline to Day 28 by treatment group and carrier status for variant rs7442295, and Table 3 (below) provides LS mean change in serum urate from baseline to Day 28 evaluations for serum urate by treatment group and carrier status for variant rs7442295) (SD=standard deviation).

[2] = Studies 3201 and 3101 (Examples 1 and 2), conclusions on serum urate
Method: as §1
(§2) A study is performed to evaluate the efficacy and safety of iloperidone compared with placebo and active control (ziprasidone) in subjects with acute schizophrenia (“Study 3101”). Patients are randomized to receive one of iloperidone at a dose of 24 mg/day given in a divided dose as 12 mg twice daily (bid), active comparator ziprasidone, or placebo. […] Uric acid results are converted to SI units using the conversion 1 mg/dL=59.5 μmol/L.

[3] = Study 3101: serum urate (uric acid) in subjects with acute schizophrenia, by SLC2A9 rs7442295 genotype
Method: as §2
Results are provided in Table 6 below, including an increase of 28.0 μmol/L for iloperidone compared to a decrease of 4.2 μmol/L in placebo groups.
Patient genotypes are obtained via a commercial 500k SNP Gene Chip Human Mapping Array. To test the hypothesis of altered urate serum levels in association with variants in SLC2A9, linear models for SLC2A9 variants are performed on urate at baseline levels (corrected for PCs, age, sex) followed by samples collected at end of study (EOS).

## COc1cc(C(C)=O)ccc1OCCCN1CCC(c2noc3cc(F)ccc23)CC1 [Iloperidone, 1-[4-[3-[4-(6-flouro-1,2-benzisoxazol-3-yl)-1-piperidinyl]propoxy]-3-methoxyphenyl]ethanone]
[1]; Baseline, female, genotype AA (4/42), ULN 394 μmol/l
  Percentage of patients with serum urate above ULN: 9.5%
[1]; Baseline, female, genotype AG (3/39), ULN 394 μmol/l
  Percentage of patients with serum urate above ULN: 7.7%
[1]; Baseline, female, genotype GG (0/7), ULN 394 μmol/l
  Percentage of patients with serum urate above ULN: 0.0%
[1]; Baseline, iloperidone group, bipolar mania, n=206
  Serum urate at baseline (SE): 323.0 (77.13), 206 μmol/L
[1]; Baseline, male, genotype AA (6/60), ULN 453 μmol/l
  Percentage of patients with serum urate above ULN: 10.0%
[1]; Baseline, male, genotype AG (1/41), ULN 453 μmol/l
  Percentage of patients with serum urate above ULN: 2.4%
[1]; Baseline, male, genotype GG (1/12), ULN 453 μmol/l
  Percentage of patients with serum urate above ULN: 8.3%
[1]; Baseline, male, genotype GG (1/12), ULN 453 μmol/l, listed as iloperidone
  Percentage of patients with serum urate above ULN: about 8.3%
[1]; Day 7, bipolar mania
  LS Mean Difference (95% CI) in serum urate change vs placebo: 1.3 (−9.29, 11.88) μmol/L
[1]; Day 7, bipolar mania, n=199
  LS Mean Change (SE) in serum urate from baseline: −2.7 (−4.07), 199 μmol/L
[1]; Day 14, bipolar mania
  LS Mean Difference (95% CI) in serum urate change vs placebo: 15.3 (4.50, 26.15) μmol/L
[1]; Day 14, bipolar mania, n=173
  LS Mean Change (SE) in serum urate from baseline: 12.6 (−4.28), 173 μmol/L
[1]; Day 21, bipolar mania
  LS Mean Difference (95% CI) in serum urate change vs placebo: 21.0 (8.91, 33.18) μmol/L
[1]; Day 21, bipolar mania, n=157
  LS Mean Change (SE) in serum urate from baseline: 19.1 (−5.24), 157 μmol/L
[1]; Day 28 (endpoint), bipolar mania, n=142
  LS Mean Change (SE) in serum urate from baseline: 27.2 (−4.93), 142 μmol/L
[1]; Day 28 (endpoint), bipolar mania, n=142, listed as iloperidone
  LS Mean Change (SE) in serum urate from baseline: 27.2 µmol/L
[1]; Day 28, bipolar mania
  Fold greater increase in serum urate from baseline compared to placebo: 4 fold
  LS Mean Difference (95% CI) in serum urate change vs placebo: 27.1 (14.94, 39.20) μmol/L
[1]; Day 28, genotype AA, female
  LS Mean Difference (95% CI) in serum urate change vs placebo: 27.85 (2.93, 52.76) μmol/L
[1]; Day 28, genotype AA, male
  LS Mean Difference (95% CI) in serum urate change vs placebo: 35.52 (12.82, 58.22) μmol/L
[1]; Day 28, genotype AA, 95% CI (14.82, 49)
  LS Mean Difference in serum urate change vs placebo: 31.91 µmol/L
[1]; Day 28, genotype AG, female
  LS Mean Difference (95% CI) in serum urate change vs placebo: −7.9 (−34.82, 19.03) μmol/L
[1]; Day 28, genotype AG, male
  LS Mean Difference (95% CI) in serum urate change vs placebo: 40.79 (14.61, 66.96) μmol/L
[1]; Day 28, genotype AG, 95% CI (−4.18, 33.86)
  LS Mean Difference in serum urate change vs placebo: 14.84 µmol/L
[1]; Day 28, genotype GG, female
  LS Mean Difference (95% CI) in serum urate change vs placebo: 3.08 (−50.97, 57.13) μmol/L
[1]; Day 28, genotype GG, male
  LS Mean Difference (95% CI) in serum urate change vs placebo: 102.96 (48.93, 156.99) μmol/L
[1]; Day 28, genotype GG, 95% CI (18.91, 94.99)
  LS Mean Difference in serum urate change vs placebo: 56.95 µmol/L
[1]; Day 28, 24 mg/day, all genotypes, bipolar mania
  Mean change from baseline in serum urate: 33.4 µmol/L
[1]; EOS (LOCF), genotype AA, female
  LS Mean Difference (95% CI) in serum urate change vs placebo: 15.97 (−6.71, 38.64) μmol/L
[1]; EOS (LOCF), genotype AA, male
  LS Mean Difference (95% CI) in serum urate change vs placebo: 18.99 (−0.89, 38.86) μmol/L
[1]; EOS (LOCF), genotype AG, female
  LS Mean Difference (95% CI) in serum urate change vs placebo: −1.4 (−25.85, 23.06) μmol/L
[1]; EOS (LOCF), genotype AG, male
  LS Mean Difference (95% CI) in serum urate change vs placebo: 19.58 (−2.91, 42.08) μmol/L
[1]; EOS (LOCF), genotype GG, female
  LS Mean Difference (95% CI) in serum urate change vs placebo: 4.54 (−50.43, 59.52) μmol/L
[1]; EOS (LOCF), genotype GG, male
  LS Mean Difference (95% CI) in serum urate change vs placebo: 88.45 (38.7, 138.21) μmol/L
[1]; EOS, genotype AA, 95% CI (3.19, 33.28)
  LS Mean Difference in serum urate change vs placebo: 18.23 µmol/L
[1]; EOS, genotype AG, 95% CI (−8.27, 25.48)
  LS Mean Difference in serum urate change vs placebo: 8.61 µmol/L
[1]; EOS, genotype GG, 95% CI (18.68, 92.13)
  LS Mean Difference in serum urate change vs placebo: 55.4 µmol/L
[1]; bipolar mania, vs placebo
  Effect on serum urate (in words): statistically significant increase in serum urate; also recorded: associated with increases in serum urate compared to placebo
[1]; genotype GG, bipolar mania
  Iloperidone-associated increase in serum urate in rs7442295-G/G individuals (in words): significant in individuals who are homozygous for the rs7442295 (G) allele
  Increase in serum urate in G/G patients (in words): nearly twice as large
[1]; genotype GG, especially males, ULN 453 (male), 394 (female) μmol/l
  Serum urate relative to ULN in G/G individuals treated with iloperidone (in words): a significant number of individuals (particularly homozygous G/G males) exceed the upper limit of normal (ULN); also recorded: above ULN value in individuals that are homozygous (GG) for the rs7442295 (G) allele
[1]; male, genotype GG, baseline to end of study
  Fold increase in percentage of patients with high urate levels (above ULN): approximately 4 fold
[2]; bipolar disorder and schizophrenia
  Effect on serum urate compared to placebo (in words): associated with increases in serum urate compared to placebo
[2]; genotype G/G, both studies
  Increase in serum urate in G/G patients (in words): nearly twice as large
[3]; Day 0, iloperidone group, schizophrenia, n=300
  Serum urate at Day 0 (SE): 318.3 (73.19), 300 μmol/L
[3]; Day 14, schizophrenia
  LS Mean Difference (95% CI) in serum urate change vs placebo: 18.4 (6.55. 29.93) μmol/L
[3]; Day 14, 24 mg/day (12 mg bid), schizophrenia, n=276
  LS Mean Change (SE) in serum urate from baseline: 15.5 (58.85), 276 μmol/L
[3]; Day 28, genotype AA
  LS Mean Difference (95% CI) in serum urate change vs placebo: 10.05 (14.90, 35.97) μmol/L
[3]; Day 28, genotype AG
  LS Mean Difference (95% CI) in serum urate change vs placebo: 30.02 (−2.86, 57.63) μmol/L
[3]; Day 28, genotype GG
  LS Mean Difference (95% CI) in serum urate change vs placebo: 52.4 (0.33, 104.45) μmol/L
[3]; Day 28, schizophrenia
  Change from baseline in uric acid relative to ziprasidone arm (in words): more than twice the change from baseline observed in the ziprasidone arm
  Fold greater increase from baseline in blood uric acid compared to placebo: roughly 4 fold
  LS Mean Difference (95% CI) in serum urate change vs placebo: 23.8 (9.16. 37.96) μmol/L
[3]; Day 28, iloperidone 24 mg/day (12 mg bid), schizophrenia, n=206
  LS Mean Change (SE) in serum urate from baseline: 28.0 (4.05), 206 μmol/L
[3]; Day 28, iloperidone 24 mg/day (12 mg bid), schizophrenia, n=206, listed as iloperidone
  LS Mean Change (SE) in serum urate from baseline: 28.0 µmol/L
[3]; genotype GG, male schizophrenia patients
  Iloperidone-induced change in serum urate with GG genotype, by sex (in words): particular pronounced in male schizophrenia patients
[3]; schizophrenia, ANCOVA
  Effect on serum urate compared to placebo (in words): statistically significant increase in serum urate

## O=C1Cc2cc(CCN3CCN(c4nsc5ccccc45)CC3)c(Cl)cc2N1 [ziprasidone]
[3]; ziprasidone active comparator arm, schizophrenia
  LS mean change from baseline to endpoint in serum urate: 13.1 µmol/L
[3]; ziprasidone arm, schizophrenia
  Increase in serum urate relative to iloperidone (in words): approximately half of that seen in with iloperidone treatment
